One test has as its system PC3 (prostate). Nature of the test: In vitro cytotoxic activity (MTT) assay, PC3. Particulars: Homo sapiens; PC3 (prostate) cells, exposed for 96 hours, 50% inhibition of cell proliferation; read-out: Cytotoxicity activity IC50. Format: cell-based. The protocol: (§1) Compounds 1-16 were screened for their in vitro cytotoxic activity utilizing a 3-(4,5-dimethyl-thiazol-2-yl)-2,5-diphenyltetrazolium bromide (MTT) assay against selected cancer human cell lines consisting of PC3 (prostate), HCT116 (colon), A375 (melanoma), H1299 (lung), MIAPaCa-2 (pancreas), HL60 (leukemia), MCF7 (breast), MDA-MB-231 (breast) (T. Mosmann, J. Immunol. Meth., 1983, 65, 55-63). The cells were cultured at 37° C. in RMPI1640 medium supplemented with 10% fetal bovine serum, 50 IU/mL penicillin, and 50 μg/mL streptomycin in a 5% CO2 incubator. All cells were sub-cultured 3 times/week by trypsinisation. Viable cells were seeded and allowed to adhere for 12 hours before a test drug was added in 96-well plates at an initial density of 1.0×10^5 cells/mL. Tumor cell lines were separately exposed to various concentrations of the tested compounds followed by incubation at a temperature of 37° C. during 96 hours inside a medium of fresh RMPI 1640. Cells were subsequently incubated at 37° C. using MTT at 0.5 mg/mL during 4 hours. After removal of supernatant, formazan crystals were dissolved in isopropanol and the optical density was measured at 570 nm. CX-4945 was used as a positive control.

The subject of a further test is HCT116 (colon). Nature of the test: In vitro cytotoxic activity (MTT) assay, HCT116. Format: cell-based. Particulars: Homo sapiens, HCT-116; HCT116 (colon) cells, exposed for 96 hours, 50% inhibition of cell proliferation; read-out: Cytotoxicity activity IC50. The protocol:
as §1

A further test deals with A375 (melanoma). Nature of the test: In vitro cytotoxic activity (MTT) assay, A375. Format: cell-based. Particulars: Homo sapiens, A-375; A375 (melanoma) cells, exposed for 96 hours, 50% inhibition of cell proliferation; read-out: Cytotoxicity activity IC50. The protocol:
as §1

The test system of the next test is H1299 (lung). Description: In vitro cytotoxic activity (MTT) assay, H1299. The class given is cell-based. Particulars: Homo sapiens, NCI-H1299; H1299 (lung) cells, exposed for 96 hours, 50% inhibition of cell proliferation; read-out: Cytotoxicity activity IC50. The protocol: as §1
The test system of a further test is MIAPaCa-2 (pancreas). Nature of the test: In vitro cytotoxic activity (MTT) assay, MIAPaCa-2. Format: cell-based. Particulars: Homo sapiens, MIA PaCa-2; MIAPaCa-2 (pancreas) cells, exposed for 96 hours, 50% inhibition of cell proliferation; read-out: Cytotoxicity activity IC50. The protocol:
as §1

For a further test, the system named is HL60 (leukemia). Description: In vitro cytotoxic activity (MTT) assay, HL60. The class given is cell-based. Particulars: Homo sapiens, HL-60; HL60 (leukemia) cells, exposed for 96 hours, 50% inhibition of cell proliferation; read-out: Cytotoxicity activity IC50. The protocol: as §1
The next test deals with MCF7 (breast). Description: In vitro cytotoxic activity (MTT) assay, MCF7. Format: cell-based. Particulars: Homo sapiens; MCF7 (breast) cells, exposed for 96 hours, 50% inhibition of cell proliferation; read-out: Cytotoxicity activity IC50. The protocol:
as §1

The test system of a further test is MDA-MB-231 (breast). Description: In vitro cytotoxic activity (MTT) assay, MDA-MB-231. The class given is cell-based. Particulars: Homo sapiens; MDA-MB-231 (breast) cells, exposed for 96 hours, 50% inhibition of cell proliferation; read-out: Cytotoxicity activity IC50. The protocol: as §1
The target in test [1] is T1, recombinant human CK2 (RRββ-holoenzyme) (Homo sapiens, UniProt P68400).
T1 construct: purchased Millipore
T1 sequence (P68400 whole entry): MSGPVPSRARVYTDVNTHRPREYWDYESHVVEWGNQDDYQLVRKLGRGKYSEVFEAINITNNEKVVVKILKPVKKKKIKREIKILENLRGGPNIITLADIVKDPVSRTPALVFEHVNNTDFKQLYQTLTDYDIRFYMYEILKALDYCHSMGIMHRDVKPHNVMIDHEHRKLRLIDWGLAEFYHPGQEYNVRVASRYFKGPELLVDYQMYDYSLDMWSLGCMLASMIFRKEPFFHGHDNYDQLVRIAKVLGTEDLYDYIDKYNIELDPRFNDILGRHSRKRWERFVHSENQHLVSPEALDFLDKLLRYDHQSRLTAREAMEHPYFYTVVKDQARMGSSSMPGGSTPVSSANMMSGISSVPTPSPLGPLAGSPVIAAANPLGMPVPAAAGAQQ
T1 sequence (P67870 whole entry partner): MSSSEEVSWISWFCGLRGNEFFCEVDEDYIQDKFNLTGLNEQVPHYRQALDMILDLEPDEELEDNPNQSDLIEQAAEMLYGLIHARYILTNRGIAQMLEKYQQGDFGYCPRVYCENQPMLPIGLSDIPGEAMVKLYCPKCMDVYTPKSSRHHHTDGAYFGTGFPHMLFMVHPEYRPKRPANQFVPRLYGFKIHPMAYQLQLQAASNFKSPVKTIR
Description: CK2 Kinase Assay (33P-ATP, substrate peptide RRRDDDSDDD). Format: biochemical. Particulars: final ATP concentration 15 μM, 10 min at 30° C., eight concentrations; read-out: protein kinase CK2 inhibition IC50. The protocol:
CK2 Kinase Assay was conducted using the protocol as described in Pierre F. et al; J. Med. Chem. 2011, 54, 635-654. The tested compounds in aqueous solution were added at a volume of 10 μL to a reaction mixture comprising 10 μL of assay dilution buffer (ADB; 20 mM MOPS, pH 7.2, 25 mM β-glycerol phosphate, 5 mM EGTA, 1 mM sodium orthovanadate, and 1 mM dithiothreitol), 10 μL of substrate peptide (RRRDDDSDDD, dissolved in ADB at a concentration of 1 mM), 10 μL of recombinant human CK2 (RRββ-holoenzyme, 25 ng dissolved in ADB; Millipore). Reactions were initiated by the addition of 10 μL of ATP solution (90% 75 mMMgCl2, 75 μM ATP (final ATP concentration: 15 μM) dissolved in ADB; 10% [γ-33P] ATP (stock 1 mCi/100 μL; 3000 Ci/mmol (Perkin-Elmer) and maintained for 10 min at 30° C. The reactions were quenched with 100 μL of 0.75% phosphoric acid and then transferred to and filtered through a phosphor cellulose filter plate (Millipore). After washing each well five times with 0.75% phosphoric acid, the plate was dried under vacuum for 5 min and, following the addition of 15 μL of scintillation fluid to each well, the residual radioactivity was measured using a Wallac luminescence counter. The IC50 values were derived from eight concentrations of test inhibitors.

Here are results for 1 compound from patent US12024518B1, “Pyrazolo[4,3-C][1,6]naphthyridines as CK2 inhibitors” (KING FAISAL UNIVERSITY, priority 2023, dated 2024).

The term IC50 denotes the concentration at which inhibition is half-maximal.

For `O=C(O)c1n[nH]c2c1c(Nc1cccc(Cl)c1)nc1ccncc12` [Compound 1, 4-((3-chlorophenyl)amino)-1H-pyrazolo[4,3-c][1,6]naphthyridine-3-carboxylic acid], the IC50 in the test with PC3 (prostate) was determined as 2.5 µM; in the test with HCT116 (colon) it was 1.7 µM; in the test with A375 (melanoma), 3.8 µM; with H1299 (lung), 1.9 µM; in the test with MIAPaCa-2 (pancreas), 1.4 µM; in the test on HL60 (leukemia) it was 2.9 µM. In addition, the IC50 in the test with MCF7 (breast) is 6.3 µM; with MDA-MB-231 (breast), 5.8 µM; in test [1] it was 0.048 µM.
